Data: US20240425807A1, “MANUFACTURING METHOD OF MIXED POWDER, MIXED POWDER, POWDER, AND POWDER MEDIUM” (FUJIFILM Corporation, priority 2022, published 2024)

How the values were obtained:
[1] = Overall evaluation based on solubility and liquid property; format: physicochemical; conditions: combined from solubility and liquid property
[2] = Liquid property (pH) of solution obtained in solubility evaluation; format: physicochemical; conditions: pH of the solution obtained in the solubility evaluation (tyrosine 0.44 g/L in distilled water)
Procedure: A pH of the solution obtained in the evaluation of solubility was evaluated. Liquid property was evaluated according to the following evaluation standard.

With `N[C@@H](Cc1ccc(O)cc1)C(=O)O` [Comparative Example 1, L-tyrosine] the Overall evaluation [1] was “E (the solution was still turbid even after 1 hour, and/or the pH was other than neutral)” and the Liquid property [2] was “Neutral (pH of 6.0 to 8.5)”.
